Results as given in patent US7776913B2, “Carnitines for treating or preventing disorders caused by andropause” (Sigma-Tau Industrie Farmaceutiche Riunite S.p.A., priority 2002, dated 2010).

Assays:
[1] = test system: Patients aged over 60 years with lowered blood concentrations of free and total testosterone; test: International Index of Erectile Function questionnaire (IIEF-15); format: in vivo, human; conditions: for IIEF-15 Orgasmic Function section score (Table 17 title) / IIEF-15 Sexual Desire section score / IIEF-15 Erectile Function section score / IIEF-15 General Satisfaction section score (Table 18 title) / IIEF-15 Intercourse Satisfaction section score: mean ± SD
Description: (§1) Reported here below is a clinical trial conducted in order to evaluate the activity of the combination according to the association in the treatment of the symptoms of male ageing.
(§2) Patients aged over 60 years with lowered blood concentrations of free and total testosterone (The Aging Male 4: 151-162, 2001) and complaining of symptoms figuring in the working definition of andropause proposed by the International Society for the Study of the Aging Male (I.S.S.A.M.) (The Aging Male 4: 151-162, 2001): reduced libido or sex drive and erectile function, depressed mood, difficulty concentrating, irritability and fatigue.
(§3) The above-mentioned compounds were presented to the patients in anonymous containers and administered for 6 months.
(§4) Medical history-taking and physical examinations were done for all patients. The following data were also collected prior to the start of treatment, after 1, 3 and 6 months of treatment: • 1. Total blood prostate-specific antigen (PSA) (ng/ml) as measured with the automatic test and monoclonal antibodies [Rigatti P., Scattoni V.: PSA: Antigene prostatico specifico. Edizioni Medico Scientifiche (EDIMES) Pavia, 1997]. • 2. Prostate volume (cm^3) as measured by suprapubic ultrasonography and calculated by means of the three diameters rule [Rigatti P. Scattoni V.: PSA: Antigene prostatico specifico. Edizioni Medico Scientifiche (EDIMES) Pavia, 1997]. • 3. Peak systolic volume (PSV) (cm/sec), end-diastolic velocity (EDV) (cm/sec), and Resistance Index (RI) (%) of the penile arteries (right and left cavernous e dorsal) as measured by means of penile basal and dynamic colour Doppler ultrasonography. RI was calculated as follows: (PSV-EDV/EDV)×100 (Urology 1997: 49: 822-830). • 4. Duration of full erections (in minutes) in the course of a recording period of three nights performed with Rigiscan. […] Free and total blood testosterone, LH and prolactin levels (The Aging Male 4: 151-162, 2001). • 6. Sexual function was checked by means of semistructured interviews and administration of the International Index of Erectile Function (IIEF-15) (Urology 1997: 49: 822-830). A score was calculated for each patient. • 7. Depression was quantified by means of the Hamilton Depression Scale questionnaire (DMS III) (Cancer 94: 2481-2489, 2002). A score was calculated for each patient. • 8. The subjective sensation of fatigue was calculated using the fatigue scale (Lison L.: Statistica applicata alla biologia sperimentale. Milano: Casa Editrice Ambrosiana, 1972). A score was calculated for each patient. • 9. Side effects.
(§5) Blood concentrations of PSA, free and total testosterone, prolactin LH, prostate volume, PSV, EDV, RI, full erection duration, IIEF-15, DMS III, and fatigue scale scores were compared between and within groups by means of factorial analysis of variance for randomised blocks (1 patient=1 block). Comparison of the mean values was done on the raw data with the exclusion of RI which used data subjected to angular transformation (sin^−1 √P/100) for the comparisons. Side effects were compared using the chi-square etst (Lison L.: Statistica applicata alla biologia sperimentale. Milano: Casa Editrice Ambrosiana, 1972).

[2] = test system: Patients aged over 60 years with lowered blood concentrations of free and total testosterone; test: Blood levels of free testosterone; format: in vivo, human; conditions: mean ± SD
Description: as §1, §2, §3
Medical history-taking and physical examinations were done for all patients. The following data were also collected prior to the start of treatment, after 1, 3 and 6 months of treatment: • 1. Total blood prostate-specific antigen (PSA) (ng/ml) as measured with the automatic test and monoclonal antibodies [Rigatti P., Scattoni V.: PSA: Antigene prostatico specifico. Edizioni Medico Scientifiche (EDIMES) Pavia, 1997]. • 2. Prostate volume (cm^3) as measured by suprapubic ultrasonography and calculated by means of the three diameters rule [Rigatti P. Scattoni V.: PSA: Antigene prostatico specifico. […] Peak systolic volume (PSV) (cm/sec), end-diastolic velocity (EDV) (cm/sec), and Resistance Index (RI) (%) of the penile arteries (right and left cavernous e dorsal) as measured by means of penile basal and dynamic colour Doppler ultrasonography. RI was calculated as follows: (PSV-EDV/EDV)×100 (Urology 1997: 49: 822-830). • 4. […] A score was calculated for each patient. • 7. Depression was quantified by means of the Hamilton Depression Scale questionnaire (DMS III) (Cancer 94: 2481-2489, 2002). A score was calculated for each patient. • 8. The subjective sensation of fatigue was calculated using the fatigue scale (Lison L.: Statistica applicata alla biologia sperimentale. Milano: Casa Editrice Ambrosiana, 1972). A score was calculated for each patient. • 9. […]

[3] = test system: Patients aged over 60 years with lowered blood concentrations of free and total testosterone; test: Penile dynamic colour Doppler ultrasonography (PSV, EDV, RI of cavernous arteries); format: in vivo, human; conditions: mean ± SD
Description: as §1, §2, §3, §4, §5

[4] = test system: Patients aged over 60 years with lowered blood concentrations of free and total testosterone; test: Total blood prostate-specific antigen (PSA) in the clinical trial; conditions: for PSA: mean ± SD, 15 patients
Description: as §1, §2, §3
as §4, with “effects. […]” for “effects.”

For testosterone undecaonate, the “IIEF-15 Orgasmic Function section score (Table 17 title)” value (“IIEF-15 Orgasmic Function section score” below) ([1]; 3 months of therapy) was 3.9 ± 0.9, the “IIEF-15 Sexual Desire section score” value ([1]; 3 months of therapy) was 5.7 ± 0.8 and the “IIEF-15 Erectile Function section score” value ([1]; 6 months of therapy) was 20.2 ± 5.3. For the same substance, the “IIEF-15 General Satisfaction section score (Table 18 title)” value ([1]; 6 months of therapy) was 4.4 ± 2.2, the “IIEF-15 Intercourse Satisfaction section score” value ([1]; 6 months of therapy) was 5.8 ± 1.9 and the “IIEF-15 Orgasmic Function section score” value ([1]; 6 months of therapy) was 4.7 ± 1.8. The “IIEF-15 Sexual Desire section score” value ([1]; 6 months of therapy) was 7.1 ± 0.9, the “Intercourse satisfaction (in words)” value ([1]; IIEF-15, Table 15) was “significantly increased” and the “Sexual desire (in words)” value ([1]; IIEF-15, Table 16) was “significantly increased”. The “Change in IIEF-15 Orgasmic Function scores (Table 18)” value ([1]; at 3 months, F=12.6, P<0.01) was “significantly increased”, the “IIEF-15 Erectile Function section score” value ([1]; before therapy) was 13.8 ± 2.7 and the “IIEF-15 General Satisfaction section score (Table 18 title)” value ([1]; before therapy) was 3.2 ± 0.6. For the same substance, the “IIEF-15 Intercourse Satisfaction section score” value ([1]; before therapy) was 4.1 ± 0.8, the “IIEF-15 Orgasmic Function section score” value ([1]; before therapy) was 3.2 ± 1.2 and the “IIEF-15 Sexual Desire section score” value ([1]; before therapy) was 4.3 ± 1.0. For the same substance, the “Change in IIEF-15 Erectile Function scores (in words)” value ([1]; both at 3 months and 6 months) was “significant increase”, the “Erectile activity (in words)” value ([1]; conclusion from Table 14) was “significantly increase” and the “Change in IIEF-15 General Satisfaction scores (text on Table 17)” value ([1]; time not stated) was “failed to induce any significant changes”. For the same substance, the Free blood testosterone ([2]; 3 months of therapy) was 19.5 ± 4.2 pg/mL, the Free blood testosterone ([2]; 6 months of therapy) was 19.7 ± 4.0 pg/mL and the Free blood testosterone ([2]; before therapy) was 4.4 ± 0.8 pg/mL. The “Left cavernous PSV” value ([3]; 3 months of therapy) was 32.6 ± 4.2 cm/sec, the “Left cavernous artery EDV” value ([3]; 3 months of therapy) was 7.5 ± 3.3 cm/s and the “Right cavernous artery EDV” value ([3]; 3 months of therapy) was 7.9 ± 3.6 cm/s. For the same substance, the “Right cavernous artery PSV” value ([3]; 3 months of therapy) was 32.8 ± 4.2 cm/sec, the “Left cavernous PSV” value ([3]; 6 months of therapy) was 33.5 ± 3.5 cm/sec and the “Left cavernous artery EDV” value ([3]; 6 months of therapy) was 7.4 ± 3.3 cm/s. The “Right cavernous artery EDV” value ([3]; 6 months of therapy) was 7.9 ± 3.6 cm/s, the “Right cavernous artery PSV” value ([3]; 6 months of therapy) was 33.7 ± 3.7 cm/sec and the “Left cavernous PSV” value ([3]; before therapy) was 33.6 ± 3.7 cm/sec. The “Left cavernous artery EDV” value ([3]; before therapy) was 7.7 ± 3.5 cm/s, the “Right cavernous artery EDV” value ([3]; before therapy) was 7.8 ± 3.6 cm/s and the “Right cavernous artery PSV” value ([3]; before therapy) was 33.2 ± 3.9 cm/sec. The PSA ([4]; 3 months of therapy) was 2.01 ± 0.79 ng/mL, the PSA ([4]; 6 months of therapy) was 2.02 ± 0.85 ng/mL and the PSA ([4]; before therapy) was 2.02 ± 0.74 ng/mL. For the same substance, the “Change in blood PSA levels (in words)” value ([4]; during and after therapy vs before) was “did not significantly increase”.
